Results published in DBAASP.
Converted amounts (≈) assume the structure as drawn. “And” between values parts separate entries of the source, which are not always exact repeats. Equal entries are not always repeated.

Assays:
Experiment in all cases: ≥ marks a high value that may be exact or a test limit, other limits are often not marked, values filed in µg/mL are converted to µM
[1] = test system: Staphylococcus aureus
[2] = test system: Pseudomonas aeruginosa ATCC 10662
[3] = test system: Staphylococcus aureus ATCC 25923
[4] = test system: Staphylococcus epidermidis ATCC 1435
[5] = test system: Acinetobacter baumannii
[6] = test system: Escherichia coli ATCC 25922
[7] = test system: Lactococcus garvieae MT2055
[8] = test system: Vibrio anguillarum MT1742
[9] = test system: Aeromonas salmonicida MT423
[10] = test system: Escherichia coli NCIMB 12260
[11] = test system: Vibrio anguillarum MT1741
[12] = test system: Aeromonas salmonicida MT004
[13] = test system: Lactococcus garvieae MT2291
[14] = test system: Yersinia ruckeri MT252
[15] = test system: Escherichia coli MG1655
[16] = test system: Bacillus subtilis 168 HT
[17] = test system: Salmonella typhimurium KCTC 1926
[18] = test system: Staphylococcus epidermidis KCTC 1917
[19] = test system: Pseudomonas aeruginosa ATCC 15692
[20] = test system: Listeria monocytogenes KCTC 19111
[21] = test system: Escherichia coli CVCC 1515
[22] = test system: Escherichia coli ER2566
[23] = test system: Pseudomonas aeruginosa ATCC 10419
[24] = test system: Bacillus subtilis ATCC 11060
[25] = test system: Pseudomonas aeruginosa ATCC 21630
[26] = test system: Salmonella enterica subsp. enterica serovar Typhimurium ATCC 14028
[27] = test system: Pseudomonas aeruginosa ATCC 27853
[28] = test system: Enterococcus faecalis ATCC 29212
[29] = test system: Escherichia coli 078
[30] = test system: Salmonella enterica subsp. enterica serovar Typhimurium C77-31
[31] = test system: Pseudomonas aeruginosa ATCC 21625
[32] = test system: Escherichia coli CMCC 44102
[33] = test system: Staphylococcus epidermidis ATCC 12228
[34] = test system: Escherichia coli UB1005
[35] = test system: Salmonella enterica subsp. enterica serovar Pullorum C79-13
[36] = test system: Escherichia coli K88
[37] = test system: Staphylococcus aureus ATCC 29213
[38] = test system: Candida albicans ATCC 5314
[39] = test system: Streptococcus sanguinis ATCC 10556
[40] = test system: Streptococcus mutans ATCC UA159

CC[C@H](C)[C@H](NC(=O)[C@H](Cc1cnc[nH]1)NC(=O)[C@H](Cc1cnc[nH]1)NC(=O)[C@H](Cc1ccccc1)NC(=O)[C@@H](N)Cc1ccccc1)C(=O)N[C@@H](Cc1ccccc1)C(=O)N[C@@H](CCCN=C(N)N)C(=O)NCC(=O)N[C@@H](CCCCN)C(=O)N[C@H](C(=O)N[C@@H](Cc1cnc[nH]1)C(=O)N[C@H](C(=O)NCC(=O)N[C@@H](CCCCN)C(=O)N[C@H](C(=O)N[C@H](C(=O)N[C@@H](Cc1cnc[nH]1)C(=O)N[C@@H](CCCN=C(N)N)C(=O)N[C@@H](CC(C)C)C(=O)N[C@H](C(=O)N[C@H](C(=O)NCC(N)=O)[C@@H](C)O)C(C)C)[C@@H](C)CC)[C@@H](C)O)C(C)C)C(C)C [FFHHIFRGKVHVGKTIHRLVTG]
MIC [1]: 2.4 µM (≈ 6.2 µg/mL) | MIC [2]: 9.66 µM (≈ 25 µg/mL) | MIC [3]: 1.2 µM (≈ 3.1 µg/mL) | MIC [4]: 1.2 µM (≈ 3.1 µg/mL) | MIC [5]: 1.2 µM (≈ 3.1 µg/mL) | MIC [6]: 1.2 µM (≈ 3.1 µg/mL)

CC[C@H](C)[C@H](NC(=O)CNC(=O)[C@H](CCCCN)NC(=O)[C@@H](NC(=O)[C@@H](NC(=O)[C@H](Cc1cnc[nH]1)NC(=O)[C@H](Cc1cnc[nH]1)NC(=O)[C@@H](NC(=O)[C@@H](N)Cc1ccccc1)[C@@H](C)CC)[C@@H](C)CC)[C@@H](C)CC)C(=O)N[C@@H](Cc1ccccc1)C(=O)N[C@@H](Cc1cnc[nH]1)C(=O)N[C@H](C(=O)NCC(=O)N[C@@H](CCCCN)C(=O)N[C@@H](CCSC)C(=O)N[C@H](C(=O)N[C@@H](Cc1cnc[nH]1)C(=O)N[C@@H](CO)C(=O)N[C@@H](C)C(=O)N[C@H](C(=O)N[C@@H](CC(N)=O)C(=O)N[C@@H](CCCN=C(N)N)C(=O)N[C@@H](CCCN=C(N)N)C(=O)N[C@@H](CCCN=C(N)N)C(=O)N[C@@H](Cc1cnc[nH]1)C(=O)O)[C@@H](C)CC)[C@@H](C)CC)[C@@H](C)CC [FIHHIIKGIFHIGKMIHSAINRRRH]
MIC [7]: 0.528 µM (≈ 1.6 µg/mL) | MIC [8]: 0.528 µM (≈ 1.6 µg/mL) | MIC [9]: 0.528 µM (≈ 1.6 µg/mL) | MIC [10]: 0.528 µM (≈ 1.6 µg/mL) | MIC [11]: 0.528 µM (≈ 1.6 µg/mL) | MIC [12]: 0.528 µM (≈ 1.6 µg/mL) | MIC [13]: 0.528 µM (≈ 1.6 µg/mL) | MIC [14]: 0.528 µM (≈ 1.6 µg/mL)

CC[C@H](C)[C@H](N)C(=O)N[C@@H](CCCCN)C(=O)N[C@H](C(=O)N[C@H](C(=O)N[C@@H](C)C(=O)N1CCC[C@H]1C(=O)N[C@@H](CCCCN)C(=O)N[C@@H](CCCCN)C(=O)N[C@H](C(=O)N[C@@H](CCCCN)C(=O)N[C@@H](CC(C)C)C(=O)O)[C@@H](C)CC)C(C)C)[C@@H](C)CC [IKIVAPKKIKL]
MIC [15]: ≥ 102 µM | MIC [16]: ≥ 102 µM

NCCCC[C@H](NC(=O)[C@H](Cc1ccc(O)cc1)NC(=O)[C@H](Cc1c[nH]c2ccccc12)NC(=O)[C@H](CCCCN)NC(=O)[C@H](CCCCN)NC(=O)[C@H](Cc1ccc(O)cc1)NC(=O)[C@H](Cc1c[nH]c2ccccc12)NC(=O)[C@H](CCCCN)NC(=O)[C@H](CCCCN)NC(=O)[C@H](Cc1ccc(O)cc1)NC(=O)[C@H](Cc1c[nH]c2ccccc12)NC(=O)[C@H](CCCCN)NC(=O)[C@H](CCCCN)NC(=O)[C@H](Cc1ccc(O)cc1)NC(=O)[C@H](Cc1c[nH]c2ccccc12)NC(=O)[C@@H](N)CCCCN)C(N)=O [KWYKKWYKKWYKKWYK]
MIC [17]: 2 µM (≈ 4.88 µg/mL) | MIC [18]: 1 µM (≈ 2.44 µg/mL) | MIC [19]: 2 µM (≈ 4.88 µg/mL) | MIC [3]: 2 µM (≈ 4.88 µg/mL) | MIC [20]: 1 µM (≈ 2.44 µg/mL) | MIC [6]: 1 µM (≈ 2.44 µg/mL)

CC[C@H](C)[C@H](NC(=O)[C@H](CCCCN)NC(=O)[C@H](CCCCN)NC(=O)[C@H](CC(C)C)NC(=O)[C@H](CCCN=C(N)N)NC(=O)[C@H](Cc1c[nH]c2ccccc12)NC(=O)[C@H](CCCN=C(N)N)NC(=O)[C@@H](NC(=O)[C@H](CCCCN)NC(=O)[C@H](Cc1c[nH]c2ccccc12)NC(=O)[C@H](CCCN=C(N)N)NC(=O)[C@H](CC(C)C)NC(=O)[C@H](CCCN=C(N)N)NC(=O)[C@H](CCCN=C(N)N)NC(=O)[C@H](Cc1ccccc1)NC(=O)[C@@H](N)CCCN=C(N)N)[C@@H](C)O)C(=O)N[C@H]1CSSC[C@@H](C(=O)N[C@H](C(N)=O)C(C)C)NC(=O)[C@H](C(C)C)NC(=O)[C@@H]2CSSC[C@H](NC(=O)[C@H](Cc3ccc(O)cc3)NC1=O)C(=O)N[C@@H](CCCN=C(N)N)C(=O)N[C@@H](CCCN=C(N)N)C(=O)N[C@@H](CCCN=C(N)N)C(=O)N[C@@H](Cc1ccccc1)C(=O)N2 [RFRRLRWKTRWRLKKICYCRRRFCVCV]
MIC [21]: 4.01 µM (≈ 14.8 µg/mL) | MIC [22]: 1 µM (≈ 3.69 µg/mL) | MIC [23]: 4.01 µM (≈ 14.8 µg/mL) | MIC [24]: 2.01 µM (≈ 7.39 µg/mL) | MIC [25]: 2.01 µM (≈ 7.39 µg/mL) | MIC [26]: 2.01 µM (≈ 7.39 µg/mL) | MIC [27]: 4.01 µM (≈ 14.8 µg/mL) | MIC [28]: 1 µM (≈ 3.69 µg/mL) | MIC [29]: 4.01 µM (≈ 14.8 µg/mL) | MIC [30]: 4.01 µM (≈ 14.8 µg/mL) | MIC [31]: 4.01 µM (≈ 14.8 µg/mL) | MIC [3]: 8.02 µM (≈ 29.6 µg/mL) | MIC [32]: 0.515 µM (≈ 1.9 µg/mL) | MIC [33]: 2.01 µM (≈ 7.39 µg/mL) | MIC [34]: 2.01 µM (≈ 7.39 µg/mL) | MIC [35]: 4.01 µM (≈ 14.8 µg/mL) | MIC [36]: 0.515 µM (≈ 1.9 µg/mL) | MIC [6]: 1 µM and 2.01 µM | MIC [37]: 2.01 µM (≈ 7.39 µg/mL)

CC[C@H](C)[C@H](NC(=O)[C@H](CCCCN)NC(=O)[C@H](CCCN=C(N)N)NC(=O)[C@@H](NC(=O)[C@@H](N)Cc1ccc(O)cc1)[C@@H](C)CC)C(=O)N[C@@H](CCCN=C(N)N)C(=O)N[C@@H](CCCN=C(N)N)C(=O)N[C@@H](Cc1ccccc1)C(=O)N[C@@H](Cc1ccccc1)C(=O)N[C@@H](CCCCN)C(=O)N[C@@H](CCCCN)C(=O)N[C@@H](CCCN=C(N)N)C(=O)N[C@@H](Cc1ccccc1)C(=O)N[C@@H](CCCCN)C(=O)N[C@@H](Cc1ccccc1)C(=O)N[C@@H](CCCN=C(N)N)C(=O)N[C@@H](CCCCN)C(=O)N[C@@H](CCCCN)C(N)=O [YIRKIRRFFKKRFKFRKK]
MIC [1]: 12.6 µM (≈ 32 µg/mL) | MIC [38]: 12.6 µM (≈ 32 µg/mL) | MIC [39]: 25.1 µM (≈ 64 µg/mL) | MIC [3]: 25.1 µM (≈ 64 µg/mL) | MIC [40]: 6.28 µM (≈ 16 µg/mL)
